Test results taken from US4732972A, “Polypeptides having growth hormone releasing activity” (Hoffmann-La Roche Inc., priority 1985, dated 1988).
Ends that are not written are not given here.

Legend:
[1] = tested on: rat pituitary cells; assay: Growth hormone release in rat pituitary cells in tissue culture (RIA for rat growth hormone); type: cell-based; settings: for Growth Hormone Released, Percentage of Control / Growth Hormone Released: 3 hours incubation; for Growth Hormone Released: control 82
Description: The biological activity of (Leu^27)-GRF(1-44)-OH was compared with that of natural GRF(1-44)-NH2 which was isolated from a human pancreatic tumor of an individual suffering from acromegaly (Salk Institute standard hp-GRF-NH2 (NL-A-10)). The assay for biological activity, which is based on the ability to stimulate production of growth hormone in rat pituitary cells in tissue culture, was performed in the following manner.
Pituitaries from 30-40 male Sprague-Dawley rats (175 g) were removed aseptically after decapitation. The anterior lobes were collected, washed 3 times in sterile Hepes buffer (0.025M) (pH 7.35) and dispersed at 37° C. in 20-30-ml Hepes buffer (pH 7.35) containing collagenase (4 mg per ml) and Dispase (Protease grade II, 2 mg per ml). After gentle 100-110-min vortexing and trituration by Pasteur pipette, the dispersed cells were separated by centrifugation (150×g, 4 min) and re-suspended in Hepes buffer containing neuraminidase (8 μg/ml), and 200 μg/ml ethylenedinitrilotetraacetic acid (EDTA) disodium salt pH 7.35, for 10 min. The cells were washed twice with plating medium and plated on multiwell-plates (1.5×10^5 cells per ml) using the following defined medium: F-12/DMEM/(6:3:1) (Gibco: 430-1700/430-1600/320-2591) with 2 g BSA/l., 2.38 g Hepes/l, 50 mg Garamycin/l (Schering Co.). The medium in each well was supplemented either with (Leu^27)-GRF(1-44)-OH or natural GRF(1-44)-NH2 at concentrations ranging from 3.1 to 200 fmol. per ml. of medium. Control wells contained no supplement. Plating was done with this medium added with 2% fetal calf serum to ensure rapid fixation of the cells. On the fourth day the cells were washed twice with the defined medium without fetal calf serum. Finally 900 μl of defined medium was added to each well plus 100 μl of the same medium containing each individual treatment, in triplicate. After 3 hours of incubation the medium was collected and diluted as required to conduct radioimmunoassays (RIAs) for rat growth hormone. RIAs were conducted using Sinha's anti-murine GH immune serum.

[2] = tested on: growth hormone release; settings: compared with amidated 44 amino acid GRF; cited from earlier work

Row | Compound | Relative potency compared to the Salk Institute standard ([1]; computerized analysis of the data of Tables 1 and 2, standard = GRF(1-44)-NH2) | Growth hormone releasing activity compared with GRF(1-44)-NH2 (in words) ([1]; data of Tables 1 and 2) | Growth Hormone Released, Percentage of Control ([1]; dose 3.1 f mol./ml.) | Growth Hormone Released ([1]; dose 3.1 f mol./ml.) | Growth Hormone Released, Percentage of Control ([1]; dose 6.3 f mol./ml.) | Growth Hormone Released ([1]; dose 6.3 f mol./ml.) | Growth Hormone Released, Percentage of Control ([1]; dose 12.5 f mol./ml.) | Growth Hormone Released ([1]; dose 12.5 f mol./ml.) | Growth Hormone Released, Percentage of Control ([1]; dose 25.0 f mol./ml.) | Growth Hormone Released ([1]; dose 25.0 f mol./ml.) | Growth Hormone Released, Percentage of Control ([1]; dose 50.0 f mol./ml.) | Growth Hormone Released ([1]; dose 50.0 f mol./ml.) | Growth Hormone Released, Percentage of Control ([1]; dose 100.0 f mol./ml.) | Growth Hormone Released ([1]; dose 100.0 f mol./ml.) | Growth Hormone Released, Percentage of Control ([1]; dose 200.0 f mol./ml.) | Growth Hormone Released ([1]; dose 200.0 f mol./ml.) | Growth hormone released in vitro relative to the amount of peptide administered ([1]; in vitro) | Biological activity after removal of the amide group (in words) [2]
1 | CC[C@H](C)[C@H](NC(=O)[C@H](C)NC(=O)[C@H](CC(=O)O)NC(=O)[C@H](C)NC(=O)[C@@H](N)Cc1ccc(O)cc1)C(=O)N[C@@H](Cc1ccccc1)C(=O)N[C@H](C(=O)N[C@@H](CC(N)=O)C(=O)N[C@@H](CO)C(=O)N[C@@H](Cc1ccc(O)cc1)C(=O)N[C@@H](CCCNC(=N)N)C(=O)N[C@@H](CCCCN)C(=O)N[C@H](C(=O)N[C@@H](CC(C)C)C(=O)NCC(=O)N[C@@H](CCC(N)=O)C(=O)N[C@@H](CC(C)C)C(=O)N[C@@H](CO)C(=O)N[C@@H](C)C(=O)N[C@@H](CCCNC(=N)N)C(=O)N[C@@H](CCCCN)C(=O)N[C@@H](CC(C)C)C(=O)N[C@@H](CC(C)C)C(=O)N[C@@H](CCC(N)=O)C(=O)N[C@@H](CC(=O)O)C(=O)N[C@H](C(=O)N[C@@H](CC(C)C)C(=O)N[C@@H](CO)C(=O)N[C@@H](CCCNC(=N)N)C(=O)N[C@@H](CCC(N)=O)C(=O)N[C@@H](CCC(N)=O)C(=O)NCC(=O)N[C@@H](CCC(=O)O)C(=O)N[C@@H](CO)C(=O)N[C@@H](CC(N)=O)C(=O)N[C@@H](CCC(N)=O)C(=O)N[C@@H](CCC(=O)O)C(=O)N[C@@H](CCCNC(=N)N)C(=O)NCC(=O)N[C@@H](C)C(=O)N[C@@H](CCCNC(=N)N)C(=O)N[C@@H](C)C(=O)N[C@@H](CCCNC(=N)N)C(=O)N[C@@H](CC(C)C)C(=O)O)[C@@H](C)CC)C(C)C)[C@@H](C)O [(Leu^27)-GRF(1-44)-OH] | 1.063 | about the same level as GRF(1-44)-NH2 or slightly higher | 162 Percentage of Control | 133 ng/mL | 204 Percentage of Control | 167 ng/mL | 272 Percentage of Control | 223 ng/mL | 329 Percentage of Control | 270 ng/mL | 417 Percentage of Control | 342 ng/mL | 516 Percentage of Control | 423 ng/mL | 649 Percentage of Control | 532 ng/mL | on the order of ten times or more the amount of (Leu^27)-GRF-OH administered | –
2 | free acid form of the 44 amino acid GRF: 44 amino acid GRF with the amide group removed, free acid form (YADAIFTNSYRKVLGQLSARKLLQDIMSRQQGESNQERGARARL-OH; UniProt P01286 32-75, looked up) | – | – | – | – | – | – | – | – | – | – | – | – | – | – | – | – | – | significant loss of biological activity
